Values after ≈ are worked out from the molar mass of the structure shown. Active and inactive are the calls of the source. The calls are words filed in the database; no cut-off is given here.
What was measured:
[1] = tested on: Pseudomonas aeruginosa; assay: Antibacterial activity against Pseudomonas aeruginosa MTCC 7952 after 24 hrs by serial dilution method relative to 11,12-Diphenyl-11a,12-dihydro-11H-indeno[2,1-c][1,5]benzothiazepine; assay type: functional
[2] = tested on: Pseudomonas aeruginosa; assay: Antibacterial activity against Pseudomonas aeruginosa MTCC 7952 after 24 hrs by serial dilution method; assay type: functional; conditions: for MIC: Pseudomonas aeruginosa, MTCC 7952, 24 h
[3] = tested on: Aspergillus fumigatus; assay: Antifungal activity against Aspergillus fumigatus MTCC 2550 after 72 hrs by serial dilution method relative to 11,12-Diphenyl-11a,12-dihydro-11H-indeno[2,1-c][1,5]benzothiazepine; assay type: functional
[4] = tested on: Bacillus subtilis
[5] = Octanol-water partition coefficient, log P of the compound; assay type: physicochemical
[6] = tested on: Candida albicans; assay: Antifungal activity against Candida albicans MTCC 183 after 72 hrs by serial dilution method; assay type: functional; conditions: for MIC: Candida albicans, MTCC 183, 72 h
[7] = tested on: Staphylococcus aureus; assay: Antibacterial activity against Staphylococcus aureus MTCC 7443 after 24 hrs by serial dilution method relative to 11,12-Diphenyl-11a,12-dihydro-11H-indeno[2,1-c][1,5]benzothiazepine; assay type: functional
[8] = tested on: Bacillus subtilis; assay: Antibacterial activity against Bacillus subtilis MTCC 441 after 24 hrs by serial dilution method relative to 11,12-Diphenyl-11a,12-dihydro-11H-indeno[2,1-c][1,5]benzothiazepine; assay type: functional
[9] = tested on: Candida albicans; assay: Antifungal activity against Candida albicans MTCC 183 after 72 hrs by serial dilution method relative to 11,12-Diphenyl-11a,12-dihydro-11H-indeno[2,1-c][1,5]benzothiazepine; assay type: functional
[10] = tested on: Bacillus subtilis; assay: microbe, parasite or virus in culture; conditions: MTCC 441, 24 h
[11] = tested on: Aspergillus fumigatus; assay: Antifungal activity against Aspergillus fumigatus MTCC 2550 after 72 hrs by serial dilution method; assay type: functional; conditions: for MIC: Aspergillus fumigatus, MTCC 2550, 72 h
[12] = tested on: Staphylococcus aureus; assay: Antibacterial activity against Staphylococcus aureus MTCC 7443 after 24 hrs by serial dilution method; assay type: functional; conditions: for MIC: Staphylococcus aureus, MTCC 7443, 24 h
[13] = tested on: Escherichia coli; assay: Antibacterial activity against Escherichia coli MTCC 42 after 24 hrs by serial dilution method; assay type: functional; conditions: for MIC: Escherichia coli, MTCC 42, 24 h
[14] = tested on: Escherichia coli; assay: Antibacterial activity against Escherichia coli MTCC 42 after 24 hrs by serial dilution method relative to 11,12-Diphenyl-11a,12-dihydro-11H-indeno[2,1-c][1,5]benzothiazepine; assay type: functional

Row | SMILES | MIC [2] [µM] | logP [5] | MIC [6] [µM] | MIC [10] [µM] | MIC [11] [µM] | MIC [12] [µM] | MIC [13] [µM] | Activity [1] [%] | -logMIC [2] | Activity [3] [%] | -logMIC [4] | -logMIC [6] | Activity [7] [%] | Activity [8] [%] | Activity [9] [%] | -logMIC [11] | -logMIC [12] | -logMIC [13] | Activity [14] [%] | also measured
1 | Cc1ccc2c(c1)SC(c1ccccc1)C1C(=N2)c2ccccc2C1c1ccccc1 (stereo unspecified) | 29.9 (≈ 12.5 µg/mL) | 7.43 | 59.8 (≈ 25 µg/mL) | 120 (≈ 50 µg/mL) | 59.8 (≈ 25 µg/mL) | 120 (≈ 50 µg/mL) | – | 51.69 | 1.52 | 51.73 | 0.92 | 1.22 | -93.37 | -93.37 | 3.39 | 1.22 | 0.92 | – | – | –
2 | COc1ccc2c(c1)SC(c1ccc(C)cc1)C1C(=N2)c2ccccc2C1c1ccccc1 (stereo unspecified) | 6.9 (≈ 3.09 µg/mL) | 7.18 | 27.9 (≈ 12.5 µg/mL) | 112 (≈ 50 µg/mL) | 55.8 (≈ 25 µg/mL) | 13.9 (≈ 6.22 µg/mL) | 27.9 (≈ 12.5 µg/mL) | 88.85 | 2.16 | 54.96 | 0.95 | 1.55 | 77.54 | -80.45 | 54.92 | 1.25 | 1.86 | 1.55 | 77.48 | –
3 | Cc1ccc2c(c1)SC(c1ccc(Cl)cc1)C1C(=N2)c2ccccc2C1c1ccccc1 (stereo unspecified) | 27.6 (≈ 12.5 µg/mL) | 7.95 | 55.3 (≈ 25 µg/mL) | 111 (≈ 50 µg/mL) | 55.3 (≈ 25 µg/mL) | – | 27.6 (≈ 12.5 µg/mL) | 55.41 | 1.56 | 55.36 | 0.96 | 1.26 | – | -78.67 | 10.66 | 1.26 | – | 1.56 | 77.72 | Activity [12]: inactive
4 | COc1ccc(C2Sc3ccccc3N=C3c4ccccc4C(c4ccccc4)C32)cc1 (stereo unspecified) | – | 7.95 | 115 (≈ 50 µg/mL) | 115 (≈ 50 µg/mL) | 57.6 (≈ 25 µg/mL) | – | 115 (≈ 50 µg/mL) | – | – | 53.51 | 0.94 | 0.94 | – | -86.26 | -86.26 | 1.24 | – | 0.94 | 6.94 | Activity [2]: inactive; Activity [12]: inactive

These reach a lower MIC [10]. Values come first.

Row | MIC [2] [µM] | logP [5] | MIC [6] [µM] | MIC [10] [µM] | MIC [11] [µM] | MIC [12] [µM] | MIC [13] [µM] | SMILES | Activity [1] [%] | -logMIC [2] | Activity [3] [%] | -logMIC [4] | -logMIC [6] | Activity [7] [%] | Activity [8] [%] | Activity [9] [%] | -logMIC [11] | -logMIC [12] | -logMIC [13] | Activity [14] [%] | also measured
5 | 61.9 (≈ 25 µg/mL) | 6.96 | 61.9 (≈ 25 µg/mL) | 61.9 (≈ 25 µg/mL) | 124 (≈ 50 µg/mL) | 61.9 (≈ 25 µg/mL) | 124 (≈ 50 µg/mL) | c1ccc(C2Sc3ccccc3N=C3c4ccccc4C(c4ccccc4)C32)cc1 (stereo unspecified) | – | 1.21 | – | 1.21 | 1.21 | – | – | – | 0.91 | 1.21 | 0.91 | – | –
6 | 18.7 (≈ 6.25 µg/mL) | – | – | 4.6 (≈ 1.54 µg/mL) | – | 4.6 (≈ 1.54 µg/mL) | 37.4 (≈ 12.5 µg/mL) | CC1(C)S[C@@H]2[C@H](NC(=O)Cc3ccccc3)C(=O)N2[C@H]1C(=O)O [PENICILLIN G] | – | – | – | – | – | – | – | – | – | – | – | – | –
7 | 116 (≈ 50 µg/mL) | 7.9 | 116 (≈ 50 µg/mL) | 28.9 (≈ 12.5 µg/mL) | 116 (≈ 50 µg/mL) | 28.9 (≈ 12.5 µg/mL) | 57.9 (≈ 25 µg/mL) | Cc1ccc(C2Sc3cc(C)ccc3N=C3c4ccccc4C(c4ccccc4)C32)cc1 (stereo unspecified) | -87.07 | 0.94 | 6.53 | 1.54 | 0.94 | 53.31 | 53.31 | -87.1 | 0.94 | 1.54 | 1.24 | 53.26 | –
8 | 6.9 (≈ 3.23 µg/mL) | 7.23 | 6.9 (≈ 3.23 µg/mL) | 26.7 (≈ 12.5 µg/mL) | 26.7 (≈ 12.5 µg/mL) | 53.4 (≈ 25 µg/mL) | 26.7 (≈ 12.5 µg/mL) | COc1ccc2c(c1)SC(c1ccc(Cl)cc1)C1C(=N2)c2ccccc2C1c1ccccc1 (stereo unspecified) | 88.85 | 2.16 | 78.45 | 1.57 | 2.16 | 13.73 | 56.86 | 88.85 | 1.57 | 1.27 | 1.57 | 78.45 | –
9 | 27.6 (≈ 12.5 µg/mL) | 7.95 | 27.6 (≈ 12.5 µg/mL) | 27.6 (≈ 12.5 µg/mL) | 27.6 (≈ 12.5 µg/mL) | 6.9 (≈ 3.12 µg/mL) | 13.8 (≈ 6.24 µg/mL) | Cc1ccc(C2Sc3cc(Cl)ccc3N=C3c4ccccc4C(c4ccccc4)C32)cc1 (stereo unspecified) | 55.41 | 1.56 | 77.72 | 1.56 | 1.56 | 88.85 | 55.41 | 55.41 | 1.56 | 2.16 | 1.86 | 88.86 | –
